Source: publication PMC10065276, “Enhanced therapeutic window for antimicrobial Pept-ins by investigating their structure-activity relationship” (PLOS ONE, 2023)
Residues, ends and D or L forms follow the SMILES beside them.

These compounds were tested on E. coli BL21. Conditions: BL21, 17 h.
Summary of the method: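 EUCAST broth microdilution in Mueller-Hinton medium; end-exponential culture diluted to 0.005 McF (~1.5x10^6 CFU/mL) before 1:1 mixing with two-fold peptide dilutions (0.75 to 100 μg/mL), triplicates.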

SMILES | BL21 MIC [µg/mL]
CC[C@H](C)[C@H](NC(=O)CNC(=O)[C@H](CC(C)C)NC(=O)[C@H](CCCNC(=N)N)NC(=O)[C@@H]1CCCN1C(=O)[C@H](CCCNC(=N)N)NC(=O)[C@H](CCCNC(=N)N)NC(=O)[C@H](CC(C)C)NC(=O)[C@H](C)NC(=O)[C@@H](NC(=O)[C@H](C)NC(=O)[C@@H](NC(=O)CNC(=O)[C@H](CC(C)C)NC(=O)[C@H](C)N)[C@@H](C)CC)C(C)C)C(=O)N[C@@H](C)C(=O)N[C@H](C(=O)N[C@@H](C)C(=O)N[C@@H](CC(C)C)C(=O)N[C@@H](C)C(=O)N[C@@H](CCCNC(=N)N)C(=O)O)C(C)C [Peptide P33_4R_2] (H-ALGIAVALRRPRLGIAVALAR-OH) | 25.00
CC[C@H](C)[C@H](NC(=O)CNC(=O)[C@H](CC(C)C)NC(=O)[C@H](CCCNC(=N)N)NC(=O)[C@@H]1CCCN1C(=O)[C@H](CCCNC(=N)N)NC(=O)[C@H](C)NC(=O)[C@H](CC(C)C)NC(=O)[C@H](C)NC(=O)[C@@H](NC(=O)[C@H](C)NC(=O)[C@@H](NC(=O)CNC(=O)[C@H](CC(C)C)NC(=O)[C@@H](N)CCCNC(=N)N)[C@@H](C)CC)C(C)C)C(=O)N[C@@H](C)C(=O)N[C@H](C(=O)N[C@@H](C)C(=O)N[C@@H](CC(C)C)C(=O)N[C@@H](C)C(=O)N[C@@H](CCCNC(=N)N)C(=O)O)C(C)C [Peptide P33_4R_3] (H-RLGIAVALARPRLGIAVALAR-OH) | 50.00
CC[C@H](C)[C@H](NC(=O)CNC(=O)[C@H](CC(C)C)NC(=O)[C@H](CCCNC(=N)N)NC(=O)[C@@H]1CCCN1C(=O)[C@H](C)NC(=O)[C@H](CCCNC(=N)N)NC(=O)[C@H](CC(C)C)NC(=O)[C@H](C)NC(=O)[C@@H](NC(=O)[C@H](C)NC(=O)[C@@H](NC(=O)CNC(=O)[C@H](CC(C)C)NC(=O)[C@@H](N)CCCNC(=N)N)[C@@H](C)CC)C(C)C)C(=O)N[C@@H](C)C(=O)N[C@H](C(=O)N[C@@H](C)C(=O)N[C@@H](CC(C)C)C(=O)N[C@@H](C)C(=O)N[C@@H](CCCNC(=N)N)C(=O)O)C(C)C [Peptide P33_4R_4] (H-RLGIAVALRAPRLGIAVALAR-OH) | 12.50
CC[C@H](C)[C@H](NC(=O)CNC(=O)[C@H](CC(C)C)NC(=O)[C@H](C)NC(=O)[C@@H]1CCCN1C(=O)[C@H](CCCNC(=N)N)NC(=O)[C@H](CCCNC(=N)N)NC(=O)[C@H](CC(C)C)NC(=O)[C@H](C)NC(=O)[C@@H](NC(=O)[C@H](C)NC(=O)[C@@H](NC(=O)CNC(=O)[C@H](CC(C)C)NC(=O)[C@@H](N)CCCNC(=N)N)[C@@H](C)CC)C(C)C)C(=O)N[C@@H](C)C(=O)N[C@H](C(=O)N[C@@H](C)C(=O)N[C@@H](CC(C)C)C(=O)N[C@@H](C)C(=O)N[C@@H](CCCNC(=N)N)C(=O)O)C(C)C [Peptide P33_4R_5] (H-RLGIAVALRRPALGIAVALAR-OH) | 12.50
CC[C@H](C)[C@H](NC(=O)CNC(=O)[C@H](CC(C)C)NC(=O)[C@H](CCCNC(=N)N)NC(=O)[C@@H]1CCCN1C(=O)[C@H](CCCNC(=N)N)NC(=O)[C@H](CCCNC(=N)N)NC(=O)[C@H](CC(C)C)NC(=O)[C@H](C)NC(=O)[C@@H](NC(=O)[C@H](C)NC(=O)[C@@H](NC(=O)CNC(=O)[C@H](CC(C)C)NC(=O)[C@@H](N)CCCNC(=N)N)[C@@H](C)CC)C(C)C)C(=O)N[C@@H](C)C(=O)N[C@H](C(=O)N[C@@H](C)C(=O)N[C@@H](CC(C)C)C(=O)N[C@@H](C)C(=O)N[C@@H](C)C(=O)O)C(C)C [Peptide P33_4R_6] (H-RLGIAVALRRPRLGIAVALAA-OH) | 12.50
CC(C)C[C@H](NC(=O)CNC(=O)[C@H](CCCNC(=N)N)NC(=O)[C@@H]1CCCN1C(=O)[C@H](CCCNC(=N)N)NC(=O)[C@H](C)NC(=O)[C@@H](NC(=O)[C@H](CC(C)C)NC(=O)[C@H](C)NC(=O)[C@H](CC(C)C)NC(=O)CNC(=O)[C@H](CC(C)C)NC(=O)CNC(=O)[C@@H](N)CCCNC(=N)N)C(C)C)C(=O)NCC(=O)N[C@@H](CC(C)C)C(=O)N[C@@H](C)C(=O)N[C@@H](CC(C)C)C(=O)N[C@H](C(=O)N[C@@H](C)C(=O)N[C@@H](CCCNC(=N)N)C(=O)O)C(C)C [R9A, R20A] (H-RGLGLALVARPRGLGLALVAR-OH) | 50.00
